One series has as its system endometrium. As to the kind of experiment: histology / dating of endometrial biopsies (Example I). In kind it is in vivo, human. As to the method:
Endometrial biopsies were performed with an endometrial suction curette (Z-Sampler, California) on day +3 in six patients. Three patients using the 10 mg vaginal ring had endometrial biopsies repeated on day +7. […] Steril. 1:3-25 was used for assessing the day of the menstrual cycle. Endometrial tissue was processed routinely to obtain hematoxylin and eosin stained sections. These were coded and examined by the same pathologist, who was blinded for the hormone replacement therapy of each patient.

Series [1] concerns functionally agonadal women. Briefly: clinical pregnancy and nidation rates in an oocyte donation cycle (Example III). In kind it is in vivo, human. How it is done: Seventeen functionally agonadal women used a progesterone containing vaginal ring having an in vitro release rate of 10 mg per day as the only source of progesterone during an oocyte donation cycle. When pregnancy was documented on day 12 after embryo transfer, the 10 mg ring was replaced by a vaginal ring having an in vitro release rate of 15 mg, which was left in place until the twelfth week of pregnancy. In the same period of time eighteen other women received daily i.m. injections of 100 mg progesterone. The decision to use one or the other route of administration was not randomized.

The subject of series [2] is normogonadal women undergoing IVF-ET. Briefly: clinical pregnancy rate in IVF-ET (Example IV). In kind it is in vivo, human. The settings on record: daily i.m. injection of 50 mg, 10/26. As to the method: Forty-nine normogonadal women undergoing IVF-ET were randomly assigned to receive a progesterone containing vaginal ring having an in vitro release rate of 10 mg per day (n=23) or a daily intramuscular (i.m.) injection of 50 mg progesterone (n=26). In order to induce multiple follicle growth, subjects received a sequential treatment with a gonadotropin releasing hormone (GnRH) agonist, human menopausal gonadotropin (hMG) and human […] gonadotropin (hCG). Oocytes were aspirated thirty-six hours after administering hCG, and treatment with progesterone, either i.m. or by vaginal ring, began at this time. Progesterone treatment continued for a maximum of seven weeks.

For series [3] the following is noted: human, in vivo.
Series [4] concerns rat embryos at the two cell stage. Particulars: cultured in vitro in the presence vs absence of hormone; cited from earlier work.
The conditions of series [5]: oral administration; rapid clearance by the liver; cited from earlier work.

`CC(=O)[C@H]1CC[C@H]2[C@@H]3CCC4=CC(=O)CC[C@]4(C)[C@H]3CC[C@]12C` [progesterone]: the “circulatory progesterone level with adequate biological effect on the endometrium” value in the series with endometrium (intravaginal delivery) is given as 12-15 nmol/L. Moreover, in the series with endometrium (women supplemented with intramuscular progesterone), the advanced endometrial pattern result is on record as “did not exhibit this advanced pattern”. Moreover, the clinical pregnancy rate is reported as 38.9% in series [1] (daily i.m. injections of 100 mg, eighteen women) and 38.4% in series [2]. For the same compound, in series [1] (i.m. progesterone 100 mg daily, 9/66), the “nidation rate (total number of gestational sacs/total number of embryos transferred)” value was 13.6%. The systemic side effects entry in series [3] was “no systemic side effects”. Further, the “development to the blastocyst stage” value in series [4] is reported as “better development to the blastocyst stage”. In addition, the “bioavailability in the circulation” value in series [5] is on record as “low bioavailability”.

The values above are taken from US5869081A, “Progesterone vaginal ring for treatment of infertility” (priority 1996, dated 1999).
